# Reference: ChEMBL document CHEMBL4308834, “Novel Allosteric Activators for Ferroptosis Regulator Glutathione Peroxidase 4” (J Med Chem, 2018)
# Activity calls are given as the source filed them. The calls are words filed in the database; no cut-off is given here.
# Key:
# Homo sapiens [1] = species on record: Homo sapiens; assay: (§1) Activation of recombinant His-tagged human cytosolic GPX4 U46C mutant expressed in Escherichia coli M15 assessed as increase in oxidized glutathione-mediated oxidation of NADPH to NADP+ using tert-butyl hydroperoxide as substrate preincubated for 5 mins followed by substrate addition measured for 6 mins by glutathione reductase enzyme coupled fluorescence assay
# Homo sapiens [2] = species on record: Homo sapiens; assay: as §1, with “NADP+ at 0.4 to 250 uM” for “NADP+”, “assay relative to control” for “assay”
# Homo sapiens [3] = species on record: Homo sapiens; assay: as §1, with “NADP+ at 200 uM” for “NADP+”, “assay relative to control” for “assay”
# [4] = Binding affinity to recombinant His-tagged human cytosolic GPX4 U46C mutant expressed in Escherichia coli M15 by SPR analysis
# Homo sapiens [5] = species on record: Homo sapiens; assay: as §1, with “recombinant” for “recombinant His-tagged”, “human” for “human cytosolic”, “D21A/U46C double” for “U46C”, “assay relative to GPX4 U46C mutant control” for “assay”
# Homo sapiens [6] = species on record: Homo sapiens; assay: as §1, with “recombinant” for “recombinant His-tagged”, “human” for “human cytosolic”, “D23A/U46C double” for “U46C”, “assay relative to GPX4 U46C mutant control” for “assay”
# Homo sapiens [7] = species on record: Homo sapiens; assay: as §1, with “recombinant” for “recombinant His-tagged”, “human” for “human cytosolic”, “D21A/D23A/U46C” for “U46C”, “assay relative to GPX4 U46C mutant control” for “assay”
# [8] = Binding affinity to recombinant human GPX4 D21A/D23A double mutant expressed in Escherichia coli M15 by SPR analysis
# [9] = target: Phospholipid hydroperoxide glutathione peroxidase GPX4 (Mus musculus) (UniProt O70325); assay: Activation of GPX4 in MEF assessed as increase in oxidized glutathione-mediated oxidation of NADPH to NADP+ using tert-butyl hydroperoxide as substrate preincubated for 5 mins followed by substrate addition measured for 6 mins by glutathione reductase enzyme coupled fluorescence assay; type: cell-based
# Chain of Phospholipid hydroperoxide glutathione peroxidase GPX4 (Mus musculus) (O70325 whole entry): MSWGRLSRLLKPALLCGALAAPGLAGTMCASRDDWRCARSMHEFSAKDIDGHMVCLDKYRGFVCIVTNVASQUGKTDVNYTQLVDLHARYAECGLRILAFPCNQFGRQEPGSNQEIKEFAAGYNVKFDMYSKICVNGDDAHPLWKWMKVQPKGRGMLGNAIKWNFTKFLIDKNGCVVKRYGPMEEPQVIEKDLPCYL
# [10] = Zinc chelating activity in presence of ZnSO4 after 10 mins by crystal violet staining based assay
# [11] = Iron chelating activity assessed as compound-Fe2+ complex formation after 10 mins by Prussian blue assay
# [12] = target: Phospholipid hydroperoxide glutathione peroxidase GPX4 (Mus musculus) (UniProt O70325); assay: Activation of GPX4 in MEF assessed as increase in […] protection against CHOOH-induced cell death at 200 uM; type: cell-based
# [13] = Antioxidant activity assessed as DPPH radical scavenging activity at 500 uM; type: functional
Structure (SMILES),EC150 (Homo sapiens [1]) [µM],Emax (Homo sapiens [2]) [%],Activity (Homo sapiens [3]) [%],also measured
CC(C)(C)NC(=S)Nc1ccc(S(=O)(=O)NCCN)cc1,29,437,318,–
NCCCNS(=O)(=O)c1ccc(NC(=S)NC2CCCC2)cc1,301,214,121,–
NCCNS(=O)(=O)c1ccc(NC(=S)NCc2ccc(Cl)cc2)cc1,–,–,< 115,–
NCCNS(=O)(=O)c1ccc(NC(=S)NC2CCCCC2)cc1,–,–,< 115,–
CCNS(=O)(=O)c1ccc(NC(=S)NC2CCCC2)cc1,–,–,< 115,–
CCNC(=S)Nc1ccc(S(=O)(=O)NCCN)cc1,–,–,< 115,–
CNCCNS(=O)(=O)c1ccc(NC(=S)NC2CCCC2)cc1,121,209,167,–
NCCNS(=O)(=O)c1ccc(NC(=S)NC2CCCCCC2)cc1,–,–,< 115,–
NCCCCNS(=O)(=O)c1ccc(NC(=S)NC2CCCC2)cc1,–,–,< 115,–
NS(=O)(=O)c1ccc(NC(=S)NCCO)cc1,147,225,167,Activity (Homo sapiens [1]): Dose-dependent effect
O=S(=O)(NCCO)c1ccc(NC(=S)NC2CCCC2)cc1,–,–,< 115,–
NCCNS(=O)(=O)c1ccc(NC(=S)NC2CCCC2)cc1,20,279,219,Kd [4]: 19 µM; EC150 (Homo sapiens [5]): 367 µM; EC150 (Homo sapiens [6]): 235 µM; EC150 (Homo sapiens [7]): 382 µM; Kd [8]: 374 µM; Activity [9]: Dose-dependent effect; EC150 [9]: 61 µM; Activity [10]: inactive; Activity [11]: inactive; Activity [12]: Active; Activity [13]: inactive
CN1CCN(C(S)=Nc2ccc(S(N)(=O)=O)cc2)CC1,285,200,115,Activity (Homo sapiens [1]): Dose-dependent effect
NS(=O)(=O)c1ccc(NC(S)=NCc2ccccc2)cc1,255,300,129,Activity (Homo sapiens [1]): Dose-dependent effect
O=S(=O)(NCCO)c1ccc(NC(=S)NCc2ccc(Cl)cc2)cc1,–,–,< 115,–
